Tested on: lentiviral pseudovirus with SARS-CoV-2 spike D614G
Type: cell-based

| Compound | IC50 | maximum response (inhibition) | inhibition of virus entry (in words) |
| --- | --- | --- | --- |
| O=c1[nH]cc(F)c(=O)[nH]1 [Fluorouracil] | 7.01 µM |  |  |
| CCCCC[C@H](O)/C=C/[C@H]1[C@H](O)CC(=O)[C@@H]1CCCCCCC(=O)O [Alprostadil] | 7.42 µM |  |  |
| CC(=O)O[C@@]12CO[C@@H]1C[C@H](O)[C@@]1(C)C(=O)[C@H](O)C3=C(C)[C@@H](OC(=O)[C@H](O)[C@@H](NC(=O)OC(C)(C)C)c4ccccc4)C[C@@](O)([C@@H](OC(=O)c4ccccc4)[C@H]21)C3(C)C [Docetaxel] | < 0.08 µM |  |  |
| N=C(N)c1ccc2cc(OC(=O)c3ccc(N=C(N)N)cc3)ccc2c1 [Nafamostat] |  | 50% |  |
| Nc1nc(Cl)nc2c1ncn2[C@H]1C[C@H](O)[C@@H](CO)O1 [Cladribine] | 7.74 µM |  |  |
| CN(C)CCCN1c2ccccc2Sc2ccc(Cl)cc21 [Chlorpromazine] | 9.63 µM |  |  |
| CN(C)C(=O)COC(=O)Cc1ccc(OC(=O)c2ccc(NC(=N)N)cc2)cc1 [Camostat] |  | 50% | failed to inhibit virus entry sufficiently |
